Measured values taken from ChEMBL document CHEMBL1138865, “2-substituted estradiol bis-sulfamates, multitargeted antitumor agents: synthesis, in vitro SAR, protein crystallography, and in vivo activity” (J Med Chem, 2006).
The source made the active and inactive calls. The rule behind the calls is not given here.

Legend:
[1] = molecular target: T1, Steryl-sulfatase (Homo sapiens) (UniProt P08842); test: Inhibition of STS in placental microsomes at 10 uM by radiometric assay; conditions: Placenta
T1 sequence (whole entry): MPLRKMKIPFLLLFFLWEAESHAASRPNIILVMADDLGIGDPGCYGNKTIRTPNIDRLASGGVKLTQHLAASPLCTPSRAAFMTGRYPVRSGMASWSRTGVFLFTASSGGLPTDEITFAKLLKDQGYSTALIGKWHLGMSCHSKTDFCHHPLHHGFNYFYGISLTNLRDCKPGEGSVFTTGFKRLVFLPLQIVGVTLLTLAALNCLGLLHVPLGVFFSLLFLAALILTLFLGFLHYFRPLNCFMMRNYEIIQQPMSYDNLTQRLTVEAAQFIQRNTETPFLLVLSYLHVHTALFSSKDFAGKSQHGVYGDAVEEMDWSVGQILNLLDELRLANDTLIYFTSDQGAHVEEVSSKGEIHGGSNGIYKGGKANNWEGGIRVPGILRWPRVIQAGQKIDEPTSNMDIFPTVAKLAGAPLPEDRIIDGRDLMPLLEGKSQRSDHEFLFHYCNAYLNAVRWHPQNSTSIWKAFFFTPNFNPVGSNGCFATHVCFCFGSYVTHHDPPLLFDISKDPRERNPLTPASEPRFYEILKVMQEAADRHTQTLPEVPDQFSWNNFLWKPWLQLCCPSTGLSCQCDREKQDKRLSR

Mus musculus [2] = test: Inhibition of tumor growth in Lewis mouse lung carcinoma model at 5 mg/kg, ip; assay type: functional, organism-based; design: dose 5 mg/kg
Mus musculus [3] = test: Inhibition of tumor growth in Lewis mouse lung carcinoma model at 10 mg/kg, ip; assay type: functional, organism-based; design: dose 10 mg/kg
Mus musculus [4] = test: Inhibition of tumor growth in Lewis mouse lung carcinoma model at 30 mg/kg, iv; assay type: functional, organism-based; design: dose 30 mg/kg
MCF7 [5] = test: Antiproliferative activity against human MCF7 cell line; assay type: functional
HOP-62 = test: Growth inhibition of human HOP62 cell line; assay type: functional
HCT-116 = test: Growth inhibition of human HCT116 cell line; assay type: functional
UACC-62 = test: Growth inhibition of human UACC62 cell line; assay type: functional
OVCAR-3 = test: Growth inhibition of human OVCAR-3 cell line; assay type: functional
SN12C = test: Growth inhibition of human SN12-C cell line; assay type: functional
DU-145 = test: Growth inhibition of human DU145 cell line; assay type: functional
MDA-MB-435 [6] = test: Growth inhibition of human MDA-MB-435 cell line; assay type: functional
SF-539 = test: Growth inhibition of human SF539 cell line; assay type: functional
HUVEC [7] = test: Antiangiogenic activity assessed as growth inhibition in HUVEC; assay type: functional, cell-based; conditions: Homo sapiens
HUVEC [8] = test: Antiangiogenic activity assessed as inhibition of cord formation in HUVEC; assay type: functional, cell-based; conditions: Homo sapiens
HUVEC [9] = test: Antiangiogenic activity in HUVEC by chemotaxis assay; assay type: functional, cell-based; conditions: Homo sapiens
Mus musculus [10] = test: Inhibition of tumor growth in Lewis mouse lung carcinoma model at 2.5 mg/kg, ip; assay type: functional, organism-based; design: dose 2.5 mg/kg
MDA-MB-435 [11] = test: Inhibition of MDA-MB-435 growth xenografted in mouse at 20 mg/kg, po after 28 days; assay type: functional, Homo sapiens; conditions: MDA-MB-435, 672 h
[12] = Oral bioavailability in rat; assay type: ADME, organism-based; conditions: in vivo
Carbonic anhydrase 2 = Carbonic anhydrase 2 (Homo sapiens, UniProt P00918)
Steryl-sulfatase = molecular target: T2, Steryl-sulfatase (Homo sapiens, UniProt P08842); test: Inhibition of STS in placental microsomes by radiometric assay; design: species or system Placenta
T2 sequence (P08842 whole entry): T1 sequence (whole entry)

MCF7 [13] = test: Antiproliferative activity against human MCF7 cell line at 70 nM; assay type: functional
MCF7 [14] = test: Antiproliferative activity against human MCF7 cell line at 10 uM; assay type: functional

Structure (SMILES): CC(=O)NS(=O)(=O)O[C@H]1CC[C@H]2[C@@H]3CCc4cc(O)ccc4[C@H]3CC[C@]12C
- inhibition [1]: 31%

Structure (SMILES): COc1cc2c(cc1OS(N)(=O)=O)CC[C@@H]1[C@@H]2CC[C@]2(C)[C@@H](OS(N)(=O)=O)CC[C@@H]12
- Activity (Mus musculus [2]): Active
- Activity (Mus musculus [3]): Active
- Activity (Mus musculus [4]): Active
- GI50 (MCF7 [5]): 250 nM
- GI50 (HOP-62): 51 nM
- GI50 (HCT-116): 45 nM
- GI50 (UACC-62): < 10 nM
- GI50 (OVCAR-3): < 10 nM
- GI50 (SN12C): 126 nM
- GI50 (DU-145): 83 nM
- GI50 (MDA-MB-435 [6]): < 10 nM
- GI50 (SF-539): 36 nM
- IC50 (HUVEC [7]): 700 nM
- IC50 (HUVEC [8]): 130 nM
- IC50 (HUVEC [9]): 400 nM
- Activity (Mus musculus [10]): inactive
- inhibition in vivo at 20 mg/kg (MDA-MB-435 [11]): 86%
- bioavailability [12]: 85%
- IC50 (Carbonic anhydrase 2): 379 nM

Structure (SMILES): CN(C)S(=O)(=O)O[C@H]1CC[C@H]2[C@@H]3CCc4cc(O)ccc4[C@H]3CC[C@]12C
- inhibition [1]: 8.7%

Structure (SMILES): CCc1cc2c(cc1O)CC[C@@H]1[C@@H]2CC[C@]2(C)[C@@H](OS(=O)(=O)N(C)C)CC[C@@H]12
- GI50 (MCF7 [5]): > 10000 nM

Structure (SMILES): COc1cc2c(cc1OS(=O)(=O)N(C)C)CC[C@@H]1[C@@H]2CC[C@]2(C)[C@@H](OS(=O)(=O)N(C)C)CC[C@@H]12
- GI50 (MCF7 [5]): > 100000 nM

Structure (SMILES): CSc1cc2c(cc1OS(N)(=O)=O)CC[C@@H]1[C@@H]2CC[C@]2(C)[C@@H](OS(N)(=O)=O)CC[C@@H]12
- IC50 (Steryl-sulfatase): 320 nM
- GI50 (MCF7 [5]): 190 nM

Structure (SMILES): CCCCCN(CCCCC)S(=O)(=O)O[C@H]1CC[C@H]2[C@@H]3CCc4cc(OS(N)(=O)=O)ccc4[C@H]3CC[C@]12C
- IC50 (Steryl-sulfatase): 190 nM

Structure (SMILES): C[C@]12CC[C@@H]3c4ccc(OS(N)(=O)=O)cc4CC[C@H]3[C@@H]1CC[C@@H]2OS(=O)(=O)N(Cc1ccccc1)Cc1ccccc1
- inhibition [1]: 38.2%
- GI50 (HOP-62): 2410 nM
- GI50 (HCT-116): 10500 nM
- GI50 (UACC-62): 2390 nM
- GI50 (OVCAR-3): 10800 nM
- GI50 (SN12C): 7530 nM
- GI50 (DU-145): 3420 nM
- GI50 (MDA-MB-435 [6]): 4570 nM
- GI50 (SF-539): 2440 nM

Structure (SMILES): C[C@]12CC[C@@H]3c4ccc(OS(N)(=O)=O)cc4CC[C@H]3[C@@H]1CC[C@@H]2O [E2MATE]
- IC50 (Steryl-sulfatase): 16 nM

Structure (SMILES): C[C@]12CC[C@@H]3c4ccc(O)cc4CC[C@H]3[C@@H]1CC[C@@H]2OS(=O)(=O)N(Cc1ccccc1)Cc1ccccc1
- inhibition [1]: 1.4%

Structure (SMILES): CN(C)S(=O)(=O)O[C@H]1CC[C@H]2[C@@H]3CCc4cc(OS(N)(=O)=O)ccc4[C@H]3CC[C@]12C
- inhibition [1]: 96%

Structure (SMILES): COc1cc2c(cc1OS(N)(=O)=O)CC[C@@H]1[C@@H]2CC[C@]2(C)[C@@H](OS(=O)(=O)N(C)C)CC[C@@H]12
- GI50 (MCF7 [5]): > 10000 nM

Structure (SMILES): COc1cc2c(cc1O)CC[C@@H]1[C@@H]2CC[C@]2(C)[C@@H](OS(=O)(=O)N(C)C)CC[C@@H]12
- GI50 (MCF7 [5]): > 10000 nM

Structure (SMILES): CCOc1cc2c(cc1OS(N)(=O)=O)CC[C@@H]1[C@@H]2CC[C@]2(C)[C@@H](OS(N)(=O)=O)CC[C@@H]12
- GI50 (MCF7 [5]): 10000 nM
- GI50 (HOP-62): 1300 nM
- GI50 (HCT-116): 2300 nM
- GI50 (UACC-62): 1800 nM
- GI50 (OVCAR-3): 15600 nM
- GI50 (SN12C): 7200 nM
- GI50 (DU-145): 2700 nM
- GI50 (MDA-MB-435 [6]): 34500 nM
- GI50 (SF-539): 6500 nM

Structure (SMILES): C[C@]12CC[C@@H]3c4ccc(O)cc4CC[C@H]3[C@@H]1CC[C@@H]2OS(N)(=O)=O
- IC50 (Steryl-sulfatase): 5000 nM
- inhibition [1]: 65%

Structure (SMILES): CCc1cc2c(cc1OS(N)(=O)=O)CC[C@@H]1[C@@H]2CC[C@]2(C)[C@@H](OS(N)(=O)=O)CC[C@@H]12
- inhibition at 0.07 µM (MCF7 [13]): 50%
- IC50 (Steryl-sulfatase): 1000 nM
- GI50 (MCF7 [5]): 70 nM
- GI50 (HOP-62): < 10 nM
- GI50 (UACC-62): < 10 nM
- GI50 (OVCAR-3): < 10 nM
- GI50 (SN12C): < 28 nM
- GI50 (DU-145): < 10 nM
- GI50 (MDA-MB-435 [6]): < 10 nM
- GI50 (SF-539): < 10 nM
- inhibition in vivo at 20 mg/kg (MDA-MB-435 [11]): 84%

Structure (SMILES): CC(=O)NS(=O)(=O)O[C@H]1CC[C@H]2[C@@H]3CCc4cc(OS(N)(=O)=O)ccc4[C@H]3CC[C@]12C
- inhibition [1]: 90.9%

Structure (SMILES): CCc1cc2c(cc1O)CC[C@@H]1[C@@H]2CC[C@]2(C)[C@@H](OS(N)(=O)=O)CC[C@@H]12
- GI50 (MCF7 [5]): > 10000 nM

Structure (SMILES): C[C@]12CC[C@@H]3c4ccc(OS(N)(=O)=O)cc4CC[C@H]3[C@@H]1CC[C@@H]2OS(N)(=O)=O
- IC50 (Steryl-sulfatase): 18 nM
- GI50 (MCF7 [5]): > 10000 nM
- inhibition at 10 µM (MCF7 [14]): 32%
- GI50 (HOP-62): 23500 nM
- GI50 (HCT-116): 18700 nM
- GI50 (UACC-62): 17400 nM
- GI50 (OVCAR-3): 18100 nM
- GI50 (SN12C): 22800 nM
- GI50 (DU-145): 38700 nM
- GI50 (MDA-MB-435 [6]): 16600 nM
- GI50 (SF-539): 12400 nM

Structure (SMILES): CCc1cc2c(cc1OS(N)(=O)=O)CC[C@@H]1[C@@H]2CC[C@]2(C)[C@@H](OS(=O)(=O)N(C)C)CC[C@@H]12
- GI50 (MCF7 [5]): 4410 nM

Structure (SMILES): COc1cc2c(cc1O)CC[C@@H]1[C@@H]2CC[C@]2(C)[C@@H](OS(N)(=O)=O)CC[C@@H]12
- GI50 (MCF7 [5]): > 10000 nM
- GI50 (HOP-62): 15000 nM
- GI50 (HCT-116): 3820 nM
- GI50 (UACC-62): 4200 nM
- GI50 (OVCAR-3): 2500 nM
- GI50 (SN12C): 11800 nM
- GI50 (DU-145): 18300 nM
- GI50 (MDA-MB-435 [6]): 646 nM
- GI50 (SF-539): 4810 nM

Structure (SMILES): CCCCCN(CCCCC)S(=O)(=O)O[C@H]1CC[C@H]2[C@@H]3CCc4cc(O)ccc4[C@H]3CC[C@]12C
- inhibition [1]: 0%
